Test results as given in US20070270392A1, “Use of a Cyclopentenone Prostaglandin for Delaying the Onset and/or Preventing the Continuation of Labour” (Imperial College Innovations Limited, priority 2003, published 2007).
Residues, ends and D or L forms follow the SMILES beside them. *: point of attachment. Cbz = O=C(OCc1ccccc1)*

How the values were obtained:
NF-κB [1] = assay: EMSA of NF-κB DNA binding in nuclear extracts of treated amnion cells; format: cell-based, human
Experimental: (§1) Electro-mobility shift assay (EMSA) analysis of NF-κB DNA binding in nuclear protein extracts from (A) myometrial cells, (B) L+amnion cells, and (C) L− amnion cells treated with 15dPGJ2 or vehicle for 2 h+/−IL-1b stimulation (15 min). Consensus kB probe used to assess NF-κB DNA binding, and consensus Oct-1 probe used as control.
EMSA analysis of nuclear protein extracts from amnion cells treated with 15dPGJ2+/−GW9662 or vehicle for 2 h followed by IL-1β stimulation (15 min). Consensus kB probe used to assess NFκB DNA binding, consensus Oct-1 probe used as control.
(§2) EMSA analysis of nuclear protein extracts from (A) myometrial cells, and (B) amnion cells treated with PGA1 or vehicle for 2 h followed by IL-1b stimulation (15 min). Consensus κB probe used to assess NFκB DNA binding, consensus Oct-1 probe used as control. For supershift analysis, extracts were preincubated with antibodies against p50 or p65.
(§3) EMSA analysis of nuclear protein extracts from (A) L− amnion cells and (B) myometrial cells treated with vehicle, PGE2 or IL-1β. Consensus κB probe used.
(§4) Placentae were obtained from patients at term either at elective Caesarean section prior to labour (L−) or following spontaneous labour onset and vaginal delivery (L+). Amnion cells were prepared as described in Bennett et al., (1989). Briefly, the amnion was separated from the placenta, washed 3× in PBS, cut into strips, and incubated in 0.51 mM EDTA in PBS for 15 min. The strips were washed in PBS 2× and digested with 2.5 mg/ml dispase in serum-free DMEM for 35 min at 37° C. The amnion was then shaken vigorously in DMEM, 10% FCS to dissociate the cells, the remaining strips discarded, and the cell suspension pelleted at 175 g for 10 min and cultured in DMEM, 10% FCS (Sigma), 1% L-glutamine, 1% penicillin-streptomycin.
(§5) Nuclear and cytosolic protein extracts were obtained from cultured amnion cells as described by Schreiber et al (1989). For nuclear/cytosolic fractionation, confluent cell monolayers were scraped and lysed using a buffer containing 10 mM HEPES, 10 mM KCl, 0.1 mM EDTA, 0.1 mM EGTA, 2 mM DTT, 1% (v/v) NP-40 and complete protease inhibitor tablets (CPIs, Roche), diluted to manufacturer's instructions. Cell lysates were incubated on ice for 10 min and NP-40 added to a final concentration of 1% (v/v). Lysates were vortexed for 10 secs and centrifuged for 30 secs at 4° C., 12000 g. The supernatants were retained as the cytosolic protein extracts. The pellets were resuspended in buffer containing 10 mM HEPES, 10 mM KCl, 0.1 mM EDTA, 0.1 mM EGTA, 2 mM DTT, 400 mM NaCl, 1% NP-40 (v/v) and CPIs. Samples were shaken vigorously for 15 min in an ice bath. The nuclear protein extracts were obtained in the supernatant following a 5 min centrifugation at 4° C., 12000 g.
(§6) Sense and antisense strands (175 nmole/ml each) were incubated in annealing buffer (10 mM Tris-HCl pH7.5, 100 mM NaCl, 1 mM EDTA) for 10 min at 65° C., and allowed to cool at room temperature for 2 h. 3.5 pmole double-stranded oligonucleotides were end-labelled with 0.37 MBq ^32P(γATP) by incubating for 30 min at 37° C. with T4 polynucleotide kinase. Labelled oligonucleotides were recovered by centrifugation at […] for 2 min through MicroSpin G-25 or G-50 sephadex columns (Amersham Biosciences). […]

NF-κB [2] = assay: EMSA of NF-κB DNA binding in nuclear extracts of treated myometrial cells; format: cell-based, human; conditions: myometrial cells; for IL-1β-induced NF-κB DNA binding: IL-1β stimulation 15 min
Experimental: as §1
Consensus κB probe used to assess NF-κB DNA binding, consensus Oct-1 probe used as control. For supershift analysis, extracts were preincubated with antibodies against p50 or p65.
EMSA analysis of nuclear protein extracts from myometrial cells treated with (A) WY-14643 or vehicle, and (B) high doses of troglitazone, WY-14643 or vehicle for 2 h followed by IL-1b stimulation (15 min). Consensus κB probe used to assess NFκB DNA binding, consensus Oct-1 and Sp-1 probes used as controls.
as §2
(§7) Analysis of nuclear protein extracts from myometrial cells treated with PGE2 or vehicle for 2 h+/−TNFα or IL-1b stimulation (15 min). (A) EMSA using consensus κB probe. (B) Western immunoblot probing for nuclear p65.
as §3
(§8) Myometrial tissue was collected at term from the upper margin of uterine incision at the time of lower segment caesarean section either prior to the onset of labour (L−) or […] (L+). L+ samples were collected by Dr Mark Johnson and Dr S Soorrana at Chelsea & Westminster Hospital. Myometrial tissue was dissected, rinsed in PBS, and digested in serum-free DMEM containing 15 mg/ml collagenase 1A (Sigma), 15 mg/ml collagenase X, and 50 mg/ml bovine serum albumin for 45 min at 37° C. The cell suspension was filtered through a cell strainer, centrifuged at 400 g for 5 min, and the pellet re-suspended and plated out in DMEM, 10% FCS (Helena BioScience), 1% L-glutamine, 1% penicillin-streptomycin. Cells were used between passage numbers 1-4.
as §5, §6

NF-κB [3] = assay: Western immunoblot of NF-κB activation (p65, p50, IκB) in myometrial cells; format: cell-based, human; parameters: Accumulation of phosphorylated IκBα: dose or concentration left out as unconfirmed
Experimental: (§9) Western immunoblots of nuclear or cytosolic protein extracts from (A) myometrial cells, (B) L− amnion cells, and (C) L+amnion cells treated with 15dPGJ2 or vehicle for 2 h+/−IL-1, stimulation (15 min). Blots probed with antibodies against p65, p50 or IκBα.
Western immunoblot of nuclear or cytosolic protein extracts from myometrial cells treated with PGA1 or vehicle for 2 h followed by IL-1β stimulation (15 min). Blots probed with antibodies against p65 or IκBa.
as §7
Western immunoblots of cytosolic extracts from myometrial cells (A) treated with 15dPGJ2 for 2 h+/−IL1b for 15 min; probed for IKK, and (B) treated with […] 15dPGJ2, […] MG132 or vehicle for 2 h, +/−IL-1β for 15 min; probed for IκBα.
as §8, §5
(§10) Protein samples (20-70 μg) were mixed with Laemmli sample buffer (1:1) containing β-mercaptoethanol (5%), and boiled for 5 min. Proteins were then separated by SDS-PAGE (12-14% gels) and transferred onto PVDF membrane (Amersham Pharmacia Biotech). The membranes were blocked overnight in 5% non-fat milk prepared in PBS-T buffer, at 4° C. The blots were incubated with the primary antibody in 1% non-fat milk in PBS-T buffer for 1 h, and washed three times (10 min each) in PBS-T with vigorous shaking. The blots were then incubated with HRP-conjugated secondary antibody (diluted 1:2000 in 1% non-fat milk in PBS-T buffer) for 1 h and washed three times (10 min each) in PBS-T. Signal detection was achieved using enhanced chemi-luminescence (ECL plus system, Amersham Pharmacia Biotech) according to manufacturer's instructions.
30-50 μg protein extracts were subjected to SDS-PAGE and Western immuno-blotting. Secondary antibodies were IgG-HRP and ECL Plus detection kit (Amersham Pharmacia Biotech, Amersham Place, Little Chalfont, Bucks, HP7 9NA) was used for visualisation.

NF-κB [4] = assay: Western immunoblot of NF-κB activation (p65, p50, IκB) in amnion cells; format: cell-based, human; conditions: L−
Experimental: as §9, §4, §5
as §10, with “instructions. […]” for “instructions.”

NF-κB [5] = assay: NF-κB-dependent luciferase reporter (κB.BG.Luc) in myometrial cells; format: cell-based, human; conditions: treated 2 h, IL-1β 1 ng/ml 6 h
Experimental: Myometrial cells were transiently transfected with the NFκB-dependent reporter construct κB.BG.Luc, treated with 15dPGJ2 or vehicle for 2 h, +/−IL-1β(1 ng/ml) for 6 h. […] Values are normalised for b-gal reporter activity. (NS=nonstimulated).
Myometrial cells were transfected with […] κB.BG.Luc reporter and 200 ng PPAR-γ expression vector and treated with 15d-PGJ2 for 2 h followed by IL-1β (1 ng/ml) for 6 h. Values are normalised for β-galactosidase reporter activity. (NS=nonstimulated).
as §8
pGL3.6 κB.BG.luc: a NF-κB-dependent reporter construct with 6 copies of the NF-κB binding site.
Cells were co-transfected with the renilla vector pRL-CMV or a β-galactosidase vector pCH110 as internal controls for transfection efficiencies.

PPARα = conditions: GAL4 chimera transfection system; cited from earlier work

CCCCC(C)(C)[C@H](O)/C=C/[C@H]1[C@H](O)CC(=O)[C@@H]1C/C=C\CCCC(=O)O [16,16-Dimethyl-PGE2]
Induction of NF-κB DNA binding by the compound alone (NF-κB [1]; L− amnion cells): does not induce | IL-1β-induced NF-κB DNA binding (NF-κB [1]; L− and L+ amnion cells, treated 2 h, IL-1β stimulation 15 min): did not inhibit | Synergy with IL-1β or TNFα on NF-κB activity (NF-κB [2]): nor did it synergise | IL-1β-induced NF-κB DNA binding (NF-κB [2]; treated 2 h): did not inhibit | TNFα- and IL-1β-induced NFκB activation (NF-κB [2]; treated 2 h, TNFα or IL-1b 15 min): does not inhibit | Induction of NF-κB DNA binding / stimulation of NF-κB activity by the compound alone (NF-κB [2]; listed as 16,16-dimethyl-PGE2): neither did it stimulate | Induction of NF-κB DNA binding / stimulation of NF-κB activity by the compound alone (NF-κB [2]; listed as PGE2): does not induce | IL-1β-induced p65 nuclear translocation (NF-κB [3]): did not inhibit | IL-1β-induced p65 nuclear translocation (NF-κB [4]): did not inhibit

CN(CCOc1ccc(C[C@H](Nc2ccccc2C(=O)c2ccccc2)C(=O)O)cc1)c1ccccn1 [GW1929, reference compound]
IL-1-induced NF-κB transcriptional activity (NF-κB [5]): not | IL-1β-induced NF-κB DNA binding (NF-κB [2]; treated 2 h): failed to inhibit

Cc1cccc(Nc2cc(Cl)nc(SCC(=O)O)n2)c1C [WY-14643, reference compound]
IL-1-induced NF-κB transcriptional activity (NF-κB [5]): not | Doses that can transactivate PPARα (PPARα): 5 to 25 µM | NF-κB DNA binding (NF-κB [2]; 10-100 μM concentrations): had no effect

CC(C)C[C@@H](C=O)NC(=O)[C@H](CC(C)C)NC(=O)[C@H](CC(C)C)NC(=O)OCc1ccccc1 [MG132, reference compound] (Cbz-Leu-Leu-Leu-aldehyde)
IL-1β-induced IκBα degradation (NF-κB [3]): prevented | Accumulation of phosphorylated IκBα (NF-κB [3]; 2 h, IL-1β 15 min): resulted in the accumulation

O=C(Nc1ccccc1)c1cc([N+](=O)[O-])ccc1Cl [GW-9662]
Alleviation of 15d-PGJ2 inhibition of NF-κB DNA binding (NF-κB [1]; amnion cells treated with 15d-PGJ2 in the presence of GW-9662): failed to alleviate
